Measured values: ChEMBL document CHEMBL1155049, “Synthesis and cytotoxic activity of benzopyran-based platinum(II) complexes” (Bioorg Med Chem Lett, 2008)

Experiments:
Type in all cases: functional, cell-based
[1] = Cytotoxicity against estrogen receptor deficient human MDA-MB-436 cells after 72 hrs by MTT assay; settings: MDA-MB-436, 72 h
MCF7 = assay: Cytotoxicity against human MCF7 cells expressing estrogen receptor after 72 hrs by MTT assay; settings: MCF7, 72 h
MDA-MB-231 = assay: Cytotoxicity against estrogen receptor deficient human MDA-MB-231 cells after 72 hrs by MTT assay; settings: MDA-MB-231, 72 h
MDA-MB-468 = assay: Cytotoxicity against estrogen receptor deficient human MDA-MB-468 cells after 72 hrs by MTT assay; settings: MDA-MB-468, 72 h

COc1ccc2c(c1)OC(C)(C)[C@@H](c1ccccc1)[C@@H]2c1ccc(OCCCCCCNCCCc2ccccn2)cc1
IC50 [1]: 15.7 µM
IC50 (MCF7): 15.6 µM
IC50 (MDA-MB-231): 18.7 µM
IC50 (MDA-MB-468): 7.61 µM
